Reference: patent US8193200B2, “Antagonists of A2B adenosine receptors for treatment of inflammatory bowel disease” (University of Virginia Patent Foundation, priority 2007, dated 2012)

Columns and labels:
T84 cells = test: Flagellin-induced IL-8 secretion in T84 cells (ELISA); type: cell-based
[1] = tested on: colonic crypt epithelial cells; test: ki67 proliferation and caspase-3/TUNEL apoptosis staining of colonic crypts, DSS colitis; type: in vivo, mouse
Procedure: Apoptosis: Apoptotic cells were determined in colonic crypts of the mice that received ATL-801. Apoptotic cells were identified by fluorescent double staining using caspase-3 and terminal deoxyuridine nick-end labeling (TUNEL) as a secondary method to detect apoptosis. After deparaffinization and hydration, paraffin sections of colon were retrieved for antigens in a pressure cooker with sodium citrate (pH 6.0, 10 mM) for 10 min. After cooling, the sections were quenched in 3% H2O2 in methanol and then blocked with normal goat serum. Caspase-3 was detected with rabbit anti-cleaved-caspase-3 IgG overnight at 4° C. followed by a labeled streptavidin-biotin (LSAB) staining method consisting of successive application of secondary antibody-streptavidin, biotin-horseradish peroxidase, and cyanine-3 tyramide. TUNEL immunohistochemistry was performed using the in situ cell death detection kit, fluorescein, as described by the manufacturer (Roche Applied Science, Indianapolis, Ind.). For IL-10 model, frozen sections were used to stain cleaved caspase 3 and TUNEL. Nuclei were attained by Hoechst to count total crypt cell number. The apoptotic index for both morphologically defined apoptotic cells and fluorescent staining with caspase-3 was calculated as the number of apoptotic cells per crypt. […]

[2] = tested on: IL-10-/- mice with piroxicam induced colitis; test: Piroxicam induced colitis in IL-10-/- mice: body weight, histological score, colon length; type: in vivo, mouse
Source text: IL-10^−/− mice spontaneously develop a chronic, T-cell mediated, transmural colitis that shares many features with human Crohn's disease. Based on this model, there have been several clinical trials using IL-10 treatment for IBD in human patients 13 However, due to the inconsistency in the development of spontaneous colitis in IL-10^−/− mice, Berg and his colleagues have described rapid development of colitis in IL-10^−/− mice treated with a nonsteroidal anti-inflammatory drug piroxicam (NSAID)^9. Accordingly, mice were treated with piroxicam, 200 mg/kg diet, for two weeks to induce colitis. Mice were administered ATL-801 for a week prior to treatment with piroxicam, and ATL-801 treatment was continued during piroxicam administration. Two weeks after the induction of colitis, mice were euthanized, and colonic tissue was analyzed.
Assessment of body weights, stool consistency, and the presence of occult/gross blood by a guaic test (Hemoccult Sensa; Beckman Coulter, Fullerton, Calif.) were performed daily for each mouse. Colitis was quantified with a clinical and histological score, as described by Cooper, et. al. Clinical score was based on weight loss, stool consistency, and fecal blood (score range 0-12). Histological scoring was performed based on three variables, extent of inflammatory infiltrate, mucosal ulcers and severity of crypt (score range 0-11). IL-10^−/− mouse colon histological scoring (ranging from 0 to 4) was performed as described by Berg, et. al. to assess intestinal lesions and their severity.

IL-6 and KC secretion = test: IL-6 and KC ELISA in colon organ culture supernatants, IL-10-/- model; type: in vivo, mouse
Procedure: In the DSS-model proinflammatory cytokines were measured by real time PCR. Total RNA was extracted from DSS treated, DSS+ATL-801 and control colonic tissue using the TRizol reagent. After quantification, a reverse transcription (RT) reaction was performed with 2 μg of each sample and oligo-dT primer, using the SuperScript First strand synthesis system for RT-PCR (Invitrogen, CA). The real-time iCycler sequence detection system (Bio-Rad) was used for the real-time RT-PCR. Briefly, 3 ng of reverse transcribed cDNA, 500 nM of gene-specific primers and the iQ SYBR Green Supermix (Biorad, Hercules, Calif.) were amplified at 50° C. for 2 min and 95° C. for 10 min, followed by 40 cycles of 95° C. for 15 s and 60° C. for 1 min. The 36B4 expression levels were used as reference, and fold-induction was calculated using a standard curve. For graphical representation of quantitative PCR data, raw cycle threshold values (Ct values) obtained for treated mice were deducted from the Ct value obtained for internal 36B4 transcript levels, using the Ct method as follows: ΔΔCT=(Ct Target−Ct 36B4)treatment−(Ct Target−Ct 36B4) no treatment, and the final data were derived from 2^−ΔΔCT. Primers used: IL-6 sense 5′-ACAAGTCGGAGGCTTAATTACACAT-3′ (SEQ ID NO:1) antisense 5′-TTGCCATTGCACAACTCTTTTC-3′ (SEQ ID NO:2), MIP-2 sense 5AGT GAA CTG CGC TGT CAA TGC-3′ (SEQ ID NO:3) antisense 5′ AGGCAAACTTTTTGACCGCC 3′ (SEQ ID NO:4). In IL-10−/− model proinflammatory cytokines were measured by ELISA in organ cultures. Colon organ cultures were prepared from IL-10^−/− mice with and with out ATL-801 along with piroxicam. Colons were dissected from mice and flushed with cold PBS to remove fecal matter. Each colon was cut in to 1 cm length and washed in HBSS with pencillin/streptomycin and cultured in serum free RPMI-1640 supplemented with penicillin and streptomycin. […] Supernatants were harvested after 24 hours, centrifuged and stored at −80° C. before IL-6 and keratinocyte derived chemokine, KC levels were measured by ELISA. […] IL-8 was measured in the supernatants by ELISA.

CCCn1c(=O)n(C2CC2)c(=O)c2[nH]c(-c3ccc(N(CC)C(=O)c4cccnc4)nc3)nc21 [ATL-801]
inhibition of flagellin-induced IL-8 secretion (T84 cells; ATL-801 100 μM 30 min, then flagellin 100 ng/ml 5 hours): 60%
IL-8 in media, Flagellin+ATL-801 (T84 cells; ATL-801 100 μM, flagellin 100 ng/ml 5 h, control 206±18.5, flagellin 1126): 769 ± 13.6 pg/mL
IL-8 in media, ATL-801 alone (T84 cells; ATL-801 100 μM, no flagellin, control 206±18.5): 101 ± 34.6 pg/mL
proliferation index, ki67 positive cells ([1]; DSS+ATL, average positive cells per crypt, control 18.67±1.62, DSS 5.95±0.31): 15.13±0.44
TUNEL positive cells out of total number of cells counted in each crypt ([1]; DSS+ATL-801, DSS 16.3±2.3): 3.7±0.7
histology, ATL-801 alone ([2]; IL-10-/- mice treated with ATL-801 alone (data not shown)): normal histology
colon length ([2]; IL-10-/- mice, ATL-801+piroxicam, piroxicam 7.0±0.25 cm): 8.4±0.23 cm
mean histological score ([2]; IL-10-/- mice, piroxicam + ATL-801, score 0 to 4, piroxicam 2.8±1.0): 1.3±0.3
body weight change (Δ) ([2]; IL-10-/- mice, piroxicam+ATL-801 10 mg/Kg diet, FIG. 8A percent body weight change, piroxicam Δ−2.05±0.7): +0.2±0.5
effect of ATL-801 alone on IL-6 or IL-8 levels (IL-6 and KC secretion; ATL-801 alone (data not shown)): no effect
IL-6 levels in colon culture supernatant (IL-6 and KC secretion; IL-10-/- mice, piroxicam + ATL-801, 24 h culture, piroxicam alone 1.9±0.3, untreated 0.7±0.1): 0.46 ± 0.1 ng/mL
KC secretion in colon culture supernatant (IL-6 and KC secretion; IL-10-/- mice, piroxicam+ATL-801, piroxicam alone 5.6±0.6): 3.7 ± 0.8 ng/mL
